Experimental data as given in PMC10076671, “Spider venom-derived peptide JZTX-14 prevents migration and invasion of breast cancer cells via inhibition of sodium channels” (Frontiers in Pharmacology, 2023).
Where a SMILES comes first, the peptide text is derived from it. Bridges are numbered along the chain shown (N, C = ends).

Key:
[1] = tested on: human breast cancer cells; conditions: ref Wannous et al., 2015; cited from earlier work
From the text: (§1) Voltage-gated sodium channels (Navs; VGSCs) are membrane proteins with nine isoforms responsible for the rapid upstroke of action potentials in excitable cells ([de Lera Ruiz and Kraus, 2015]). VGSCs are present in excitable and non-excitable cells, including microglia, astrocytes, immune cells, fibroblasts, and cancer cells, and play various biological roles, such as tumour cell migration and immune cell phagocytosis ([Black and Waxman, 2013]; [Roger et al., 2015]). Nav1.5, encoded by SCN5A, is an essential receptor in breast cancer growth and migration ([Rajaratinam et al., 2022]).

[2] = tested on: MDA-MB-231 cells; conditions: ref Yang et al., 2012; cited from earlier work
From the text: Voltage-gated sodium channels (Navs; VGSCs) are membrane proteins with nine isoforms responsible for the rapid upstroke of action potentials in excitable cells ([de Lera Ruiz and Kraus, 2015]). VGSCs are present in excitable and non-excitable cells, including microglia, astrocytes, immune cells, fibroblasts, and cancer cells, and play various biological roles, such as tumour cell migration and immune cell phagocytosis ([Black and Waxman, 2013]; [Roger et al., 2015]). Nav1.5, encoded by SCN5A, is an essential receptor in breast cancer growth and migration ([Rajaratinam et al., 2022]). […] Nav1.5, a pore-forming alpha subunit of VGSC encoded by SCN5A, is not expressed in normal breast tissue or cells but is highly expressed in the breast cancer cell line MDA-MB-231 ([Dutta et al., 2018]). Elevated Nav1.5 expression promotes cell invasion and breakdown of extracellular matrix proteins, maintains ac ... || A peptide with anticancer activity was isolated and purified from animal venom to construct a new anticancer drug library. Compared to small-molecule drugs, peptide drugs have the advantages of high selectivity and affinity for molecular targets, and it is not easy to make tumours resistant to drugs ([Wu et al., 2014]). To date, many anticancer peptides have been screened from animal venom. […] Melittin, ...

[3] = tested on: MDA-MB-231 cells; conditions: strongly metastatic MDA-MB-231 cells; ref Yang et al., 2012; cited from earlier work
From the text: as §1

[4] = tested on: breast cancer cell; conditions: ref Driffort et al., 2014; cited from earlier work
From the text: as §1

[5] = tested on: Nav1.5; format: cell-based; conditions: Discussion: HEK293 cells heterologously expressing Nav1.5, 0.1 and 1 μM
Description: Sodium currents in experimental cells were recorded at room temperature (22°C–25°C) using an EPC-10 patch-clamp amplifier (HEKA, Germany) in a whole-cell patch-clamp configuration. Recording pipettes were made from borosilicate glass capillaries (VWR, United States) using a PC-10 puller (Narishige, Japan). The inner solution (mM): KCl 130, NaCl 15, CaCl2 0.37, MgCl2 1 EGTA 1, HEPES 10, pH 7.2, resistance was measured as 1.8 MO. The outer solution was composed of (mM): NaCl 140, KCl 3, MgCl2 1, CaCl2 1, HEPES 10, pH 7.2. To minimize voltage errors, the series resistance compensation was set to 80%. The P/4 protocol was used to subtract the linear capacitance and leakage current. Experimental data were acquired and analyzed using the pulse fit 8.0 program (HEKA, Germany). The needed concentrations of toxin dissolved in external solution were applied to the cell surface by microinjector.
To determine the biological activity of synthetic and natural JZTX-14 on Nav1.5, we observed their effects on HEK293T cells heterologously expressing Nav1.5 using a whole-cell voltage-clamp configuration. The current traces were induced by a 50 ms depolarisation potential of −30 mV at a holding potential of −100 mV. Currents were recorded by adding 0.1 μM and 0.5 μM of JZTX-14 to the solution.

[6] = tested on: breast cancer cells; conditions: inhibiting the PI3K/Akt/mTOR signalling pathway, ref Lim et al., 2019; cited from earlier work
From the text: A peptide with anticancer activity was isolated and purified from animal venom to construct a new anticancer drug library. Compared to small-molecule drugs, peptide drugs have the advantages of high selectivity and affinity for molecular targets, and it is not easy to make tumours resistant to drugs ([Wu et al., 2014]). To date, many anticancer peptides have been screened from animal venom. […] Melittin, ...

Question: For CC/C=C\C/C=C\C/C=C\C/C=C\C/C=C\C/C=C\CCC(=O)O [DHA], which “Invasiveness of Nav1.5-dependent cancer cells” value [1] is on record?
Answer: Its value is “reducing the invasiveness of Nav1.5-dependent cancer cells”.

Question: And the “Nav1.5 current and NHE-1 activity” value [1]?
Answer: The value was “inhibits Nav1.5 current and NHE-1 activity”.

Question: For O=C1NC(=O)C(c2ccccc2)(c2ccccc2)N1 [Phenytoin], which Migration and invasion [2] is on record?
Answer: The Migration and invasion was “significantly inhibiting the migration and invasion”.

Question: What about the “Transient and persistent Na+ current” value [3] of the same compound?
Answer: The value was “inhibited the transient and persistent Na^+ current”.

Question: For COc1ccccc1OCC(O)CN1CCN(CC(=O)Nc2c(C)cccc2C)CC1 (stereo not shown) [Ranolazine], which “Nav1.5-mediated breast cancer cell invasiveness and lung colonisation” value [4] is on record?
Answer: Its value is “inhibits Nav1.5-mediated breast cancer cell invasiveness and lung colonisation”.

Question: With CC[C@H](C)[C@H](NC(=O)[C@@H]1CSSC[C@@H]2NC(=O)[C@@H]3CCCN3C(=O)[C@@H]3CCCN3C(=O)[C@H](CCC(N)=O)NC(=O)CNC(=O)[C@@H]3CCCN3C(=O)[C@H](Cc3c[nH]cn3)NC(=O)[C@@H]3CSSC[C@H](NC(=O)[C@H](C)NC(=O)[C@H](CC(C)C)NC(=O)CNC(=O)[C@H](CO)NC(=O)[C@H](CSSC[C@H](NC(=O)CN)C(=O)N[C@@H](CCC(N)=O)C(=O)N[C@@H](CCCCN)C(=O)N[C@@H](Cc4ccccc4)C(=O)N[C@@H](Cc4ccccc4)C(=O)N[C@@H](Cc4c[nH]c5ccccc45)C(=O)N[C@@H]([C@@H](C)O)C(=O)N3)NC2=O)C(=O)N[C@@H]([C@@H](C)O)C(=O)N[C@@H](Cc2c[nH]c3ccccc23)C(=O)N2CCC[C@H]2C(=O)N[C@@H]([C@@H](C)O)C(=O)N[C@@H](CCC(=O)O)C(=O)N[C@@H]([C@@H](C)CC)C(=O)N1)C(=O)N[C@@H](CC(C)C)C(N)=O [natural JZTX-14] (H-GCQKFFWTCHPGQPPCCSGLACTWPTEICIL-NH2; disulfide 2-17, 9-22, 16-29) as the compound, how does the “Inhibition of Nav1.5 channels (in words)” value [5] read?
Answer: The value was “significantly inhibited Nav1.5 channels in a concentration-dependent manner”.

Question: Which “EGF-induced cell movement and invasion” value [6] does the source give for “Melittin: the main peptide component of Apis mellifera venom” here?
Answer: The value was “inhibits EGF-induced cell movement and invasion”.
